One experiment has as its system SMN2 mRNA. The experiment can be described thus: In vitro cell-free splicing assay for inclusion of exon 7. In kind it is biochemical. The settings on record: HeLa cell nuclear extract, 30° C., 3 hours. How it is done: The following example illustrates how tetracycline compound of the invention are active in an in vitro cell-free assay for the inclusion of exon 7 in […] mRNA. SMN1 and SMN2 pre-mRNA were prepared by in vitro transcription using T7 RNA polymerase of minigene templates that include exon 6, a truncated portion of intron 6, exon 7, intron 7 and a portion of exon 8 in the presence of ^32P-UTP. Labeled RNA was purified on a denaturing polyacrylamide gel followed by phenol extraction and ethanol precipitation of the RNA.
In vitro cell-free splicing of SMN1 and SMN2 transcripts was carried out in a 10 μl reaction volume at 30° C. for 3 hours. The reactions contained 10 fmol of labeled pre-mRNA, 30% (3 VI) HeLa cell nuclear extract (in 20 mM HEPES, pH 7.4, 20% (v/v) glycerol, 0.1M KC1, 0.2 mM EDTA), 1.3% (w/v) polyvinyl alcohol, 1.56 mM MgCl2, 32 mM HEPES, pH 7.4, 0.5 mM ATP, 20 mM creatine phosphate and either 2 μl of test compound (in 20 mM HEPES, pH 7.4, 0.1M KC1, 0.2 mM EDTA) or buffer alone. Following incubation, 200 μl of a solution containing 0.3M NaAc and 0.2% SDS was added to the reaction. Proteins were removed by extraction with an equal volume of phenol and RNA was precipitated with 2.5 volumes of ethanol. RNA was resuspended in formamide sample buffer and separated on a 9% urea-denaturing polyacrylamide gel. Quantitation of splicing was based on phosphorimage analysis (Fujix BAS2000 or Fujifilm FLA-5100). In this assay, percentage exon 7 inclusion averages 12% for the unmutated SMN1 mRNA and 4% for the SMN2 mRNA.
The in vitro activities for exon 7 splicing are expressed as the Emax (the maximum percentage exon 7 inclusion observed) and Cmax (the lowest compound concentration at which the maximum inclusion occurs in μM). For Emax, percentage inclusion values of less than 10% are indicated by “*”, values of 10-20% are indicated by “**”, and values greater than 20% are indicated by “***”. For Cmax data, concentrations of greater than 40 μM are indicated by “*”, concentrations between 40 and 10 μM are represented by “**” and concentrations of less than 10 μM are represented by “***”.

Another experiment deals with E. coli (EC D1-209). Briefly: Antibacterial MIC, gram negative. The experiment is classed as cell-based. The settings on record: CLSI methodology, 35° C., 18-24 hours.
The next experiment concerns S. aureus (SA RN450). The experiment can be described thus: Antibacterial MIC, gram positive. The settings on record: CLSI methodology, 35° C., 18-24 hours. The experiment is classed as cell-based.

The values below come from patent publication US7935687B2, “Methods for treating spinal muscular atrophy using tetracycline compounds” (Paratek Pharmaceuticals, Inc., priority 2007, dated 2011).

For the compound `CN(C)C1C(O)=C(C(N)=O)C(=O)C2(O)C(O)=C3C(=O)c4c(O)ccc(-c5ccc(CNCc6cccnc6)o5)c4CC3CC12` (stereo not shown) [BI], in the experiment on SMN2 mRNA, the “Cmax (lowest compound concentration at which the maximum exon 7 inclusion occurs)” value (shortened to “Cmax”) is on record as “*** (concentrations of less than 10 μM)” and the “Emax (maximum percentage exon 7 inclusion observed)” value is “** (values of 10-20%)”. The “MIC Gram Negative (EC D1-209)” value against E. coli (EC D1-209) is “*** (Good antibacterial activity (e.g., less than about 4 μg/mL))”. Also, the “MIC Gram Positive (SA RN450)” value in the experiment on S. aureus (SA RN450) is on record as “*** (Good antibacterial activity (e.g., less than about 4 μg/mL))”.
For `CN(C)C1C(O)=C(C(N)=O)C(=O)C2(O)C(O)=C3C(=O)c4c(O)ccc(-c5ccc(CN6CCOCC6)o5)c4CC3CC12` (stereo not shown) [AX], in the experiment on SMN2 mRNA, the “Cmax” value was “*** (concentrations of less than 10 μM)” and the “Emax (maximum percentage exon 7 inclusion observed)” value is given as “** (values of 10-20%)”. Also, the “MIC Gram Negative (EC D1-209)” value in the experiment on E. coli (EC D1-209) was “** (modest antibacterial activity (between about 4 and 8 μg/mL))”. For the same compound, the “MIC Gram Positive (SA RN450)” value in the experiment on S. aureus (SA RN450) is recorded as “*** (Good antibacterial activity (e.g., less than about 4 μg/mL))”.
Turning to `CC(C)N1CCN(CC(=O)c2ccc(O)c3c2CC2CC4C(N(C)C)C(O)=C(C(N)=O)C(=O)C4(O)C(O)=C2C3=O)CC1` (stereo not shown) [BX], in the experiment with SMN2 mRNA, the “Cmax” value is “* (concentrations of greater than 40 μM)” and the “Emax (maximum percentage exon 7 inclusion observed)” value is on record as “* (percentage inclusion values of less than 10%)”. In the experiment with E. coli (EC D1-209), the “MIC Gram Negative (EC D1-209)” value is listed as “* (weak antibacterial activity (greater than about 8 μg/mL))”. The “MIC Gram Positive (SA RN450)” value with S. aureus (SA RN450) is reported as “*** (Good antibacterial activity (e.g., less than about 4 μg/mL))”.
Consider `COC(=O)C1CCN(Cc2ccc(O)c3c2CC2CC4C(N(C)C)C(O)=C(C(N)=O)C(=O)C4(O)C(O)=C2C3=O)CC1` (stereo not shown) [Compound AK], for which, in the experiment with SMN2 mRNA, the “Cmax” value is “** (concentrations between 40 and 10 μM)”; the “Emax (maximum percentage exon 7 inclusion observed)” value is reported as “* (percentage inclusion values of less than 10%)”. For the same compound, in the experiment on E. coli (EC D1-209), the “MIC Gram Negative (EC D1-209)” value was “** (modest antibacterial activity (between about 4 and 8 μg/mL))”. Moreover, the “MIC Gram Positive (SA RN450)” value against S. aureus (SA RN450) is on record as “*** (Good antibacterial activity (e.g., less than about 4 μg/mL))”.
As for `CC(C)N(CCNC(=O)c1cccc(-c2ccc(O)c3c2CC2CC4C(N(C)C)C(O)=C(C(N)=O)C(=O)C4(O)C(O)=C2C3=O)c1)C(C)C` (stereo not shown) [T], in the experiment with SMN2 mRNA, the “Cmax” value was “** (concentrations between 40 and 10 μM)”; the “Emax (maximum percentage exon 7 inclusion observed)” value was “** (values of 10-20%)”. Also, the “MIC Gram Negative (EC D1-209)” value in the experiment on E. coli (EC D1-209) was “* (weak antibacterial activity (greater than about 8 μg/mL))”. Besides, the “MIC Gram Positive (SA RN450)” value with S. aureus (SA RN450) is listed as “*** (Good antibacterial activity (e.g., less than about 4 μg/mL))”.
In the case of `COc1ccc(CNCc2ccc(-c3ccc(O)c4c3CC3CC5C(N(C)C)C(O)=C(C(N)=O)C(=O)C5(O)C(O)=C3C4=O)cc2)cc1` (stereo not shown) [AW], in the experiment with SMN2 mRNA, the “Cmax” value is on record as “*** (concentrations of less than 10 μM)” and the “Emax (maximum percentage exon 7 inclusion observed)” value was “** (values of 10-20%)”. Further, the “MIC Gram Negative (EC D1-209)” value with E. coli (EC D1-209) was “*** (Good antibacterial activity (e.g., less than about 4 μg/mL))”. In the experiment with S. aureus (SA RN450), the “MIC Gram Positive (SA RN450)” value is “*** (Good antibacterial activity (e.g., less than about 4 μg/mL))”.
Turning to `CN(C)CCCNC(=O)c1cccc(-c2ccc(O)c3c2CC2CC4C(N(C)C)C(O)=C(C(N)=O)C(=O)C4(O)C(O)=C2C3=O)c1` (stereo not shown) [J], in the experiment with SMN2 mRNA, the “Cmax” value was “*** (concentrations of less than 10 μM)” and the “Emax (maximum percentage exon 7 inclusion observed)” value was “** (values of 10-20%)”. For the same compound, the “MIC Gram Negative (EC D1-209)” value in the experiment on E. coli (EC D1-209) is “* (weak antibacterial activity (greater than about 8 μg/mL))”. Also, the “MIC Gram Positive (SA RN450)” value against S. aureus (SA RN450) is recorded as “*** (Good antibacterial activity (e.g., less than about 4 μg/mL))”.
